Assay results reported in the Kinase Knowledgebase extract (Sharma et al. 2016).
pIC50: −log10 of the molar value. One block for each molecule: values may come before it.

Target: PIK3CA (UniProt P42336)
Assay: PI3K Inhibition

Chain of PIK3CA (P42336 whole entry, looked up): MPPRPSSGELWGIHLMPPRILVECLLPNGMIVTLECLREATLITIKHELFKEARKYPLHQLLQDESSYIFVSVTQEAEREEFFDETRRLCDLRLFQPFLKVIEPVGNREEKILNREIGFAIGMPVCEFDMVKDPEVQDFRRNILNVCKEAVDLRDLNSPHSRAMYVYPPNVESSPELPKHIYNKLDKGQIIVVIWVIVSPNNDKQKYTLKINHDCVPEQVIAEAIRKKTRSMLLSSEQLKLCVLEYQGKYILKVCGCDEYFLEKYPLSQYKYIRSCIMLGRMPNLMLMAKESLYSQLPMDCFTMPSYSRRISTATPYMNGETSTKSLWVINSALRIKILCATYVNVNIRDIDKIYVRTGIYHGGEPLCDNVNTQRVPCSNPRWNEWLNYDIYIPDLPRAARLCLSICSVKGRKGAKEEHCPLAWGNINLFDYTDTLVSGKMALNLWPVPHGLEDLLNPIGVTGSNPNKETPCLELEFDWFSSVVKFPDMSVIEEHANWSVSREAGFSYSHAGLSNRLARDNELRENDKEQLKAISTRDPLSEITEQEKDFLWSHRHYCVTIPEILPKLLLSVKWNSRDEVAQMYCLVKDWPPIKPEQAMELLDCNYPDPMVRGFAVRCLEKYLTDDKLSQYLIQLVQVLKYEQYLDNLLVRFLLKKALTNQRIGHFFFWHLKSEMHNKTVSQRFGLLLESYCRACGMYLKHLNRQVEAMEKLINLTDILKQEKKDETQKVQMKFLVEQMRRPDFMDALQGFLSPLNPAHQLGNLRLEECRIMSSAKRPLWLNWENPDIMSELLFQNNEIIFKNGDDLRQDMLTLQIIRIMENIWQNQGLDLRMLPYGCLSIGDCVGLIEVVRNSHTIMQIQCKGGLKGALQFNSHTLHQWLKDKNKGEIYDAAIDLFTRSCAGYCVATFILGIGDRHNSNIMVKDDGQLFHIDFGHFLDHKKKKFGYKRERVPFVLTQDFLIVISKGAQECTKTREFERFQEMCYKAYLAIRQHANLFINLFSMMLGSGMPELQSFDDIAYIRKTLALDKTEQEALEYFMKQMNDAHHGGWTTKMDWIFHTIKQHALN

pIC50: 4.87
SMILES: CO[C@H]1C[C@@H](C)CC2=C(NCCCC#Cc3cccc4c(=O)cc(N5CCOCC5)oc34)C(=O)C=C(NC(=O)C(C)=CC=C[C@@H](OC)[C@H](OC(N)=O)C(C)=C[C@H](C)[C@H]1O)C2=O

pIC50: 5.30
SMILES: CO[C@H]1C[C@@H](C)CC2=C(NCCCCCCCOc3ccc4c(=O)cc(N5CCOCC5)oc4c3C)C(=O)C=C(NC(=O)C(C)=CC=C[C@@H](OC)[C@H](OC(N)=O)C(C)=C[C@H](C)[C@H]1O)C2=O

pIC50: < 3.30
SMILES: CO[C@H]1C[C@@H](C)CC2=C(NCCCCCCOc3ccc4c(=O)cc(N5CCOCC5)oc4c3)C(=O)C=C(NC(=O)C(C)=CC=C[C@@H](OC)[C@H](OC(N)=O)C(C)=C[C@H](C)[C@H]1O)C2=O

pIC50: < 3.30
SMILES: C=CCNC1=C2C[C@@H](C)C[C@H](OC)[C@H](O)[C@@H](C)C=C(C)[C@H](OC(N)=O)[C@@H](OC)C=CC=C(C)C(=O)NC(=CC1=O)C2=O

The next lines start with the molecule.

SMILES: CO[C@H]1C[C@@H](C)CC2=C(NCCCCCCCCOc3ccc4c(=O)cc(N5CCOCC5)oc4c3C)C(=O)C=C(NC(=O)C(C)=CC=C[C@@H](OC)[C@H](OC(N)=O)C(C)=C[C@H](C)[C@H]1O)C2=O
pIC50: 4.55

SMILES: CO[C@H]1C[C@@H](C)CC2=C(NCCOCCOc3ccc4c(=O)cc(N5CCOCC5)oc4c3)C(=O)C=C(NC(=O)C(C)=CC=C[C@@H](OC)[C@H](OC(N)=O)C(C)=C[C@H](C)[C@H]1O)C2=O
pIC50: 4.07

SMILES: CO[C@H]1C[C@@H](C)CC2=C(NCC#Cc3cccc4c(=O)cc(N5CCOCC5)oc34)C(=O)C=C(NC(=O)C(C)=CC=C[C@@H](OC)[C@H](OC(N)=O)C(C)=C[C@H](C)[C@H]1O)C2=O
pIC50: 5.52

SMILES: CO[C@H]1C[C@@H](C)CC2=C(NCCCCOc3ccc4c(=O)cc(N5CCOCC5)oc4c3)C(=O)C=C(NC(=O)C(C)=CC=C[C@@H](OC)[C@H](OC(N)=O)C(C)=C[C@H](C)[C@H]1O)C2=O
pIC50: 3.70

SMILES: CO[C@H]1C[C@@H](C)CC2=C(NCCCOc3ccc4c(=O)cc(N5CCOCC5)oc4c3)C(=O)C=C(NC(=O)C(C)=CC=C[C@@H](OC)[C@H](OC(N)=O)C(C)=C[C@H](C)[C@H]1O)C2=O
pIC50: < 3.30

SMILES: CO[C@H]1C[C@@H](C)CC2=C(NCCCCCOc3ccc4c(=O)cc(N5CCOCC5)oc4c3)C(=O)C=C(NC(=O)C(C)=CC=C[C@@H](OC)[C@H](OC(N)=O)C(C)=C[C@H](C)[C@H]1O)C2=O
pIC50: 3.51

SMILES: CO[C@H]1C[C@@H](C)CC2=C(NCCOCCOc3ccc4c(=O)cc(N5CCOCC5)oc4c3C)C(=O)C=C(NC(=O)C(C)=CC=C[C@@H](OC)[C@H](OC(N)=O)C(C)=C[C@H](C)[C@H]1O)C2=O
pIC50: 4.15
